This is an account of results in PubChem BioAssay (NCI).

Each structure is given as a SMILES string.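 Values below derive from 48-hour exposures of cells grown in 96-well plates, with endpoints linearly interpolated between the two concentrations bracketing the appropriate inhibition level. Here, GI50 denotes the concentration required for 50% inhibition of growth. Definition used: TGI = concentration required for complete inhibition of growth.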

Among the test systems are M19-MEL melanoma; UACC-62 melanoma; HCT-15 colon; DLD-1 colon; ACHN renal; SK-MEL-28 melanoma; SK-MEL-5 melanoma; LOX IMVI melanoma; DU-145 prostate; MDA-MB-231 breast.
Assay in all cases: NCI anticancer screen, dose series, 48 h

Regarding `c1ccc(COc2cccc3ccc[n+](Cc4ccccc4)c23)cc1`, the TGI with M19-MEL melanoma was 16.3 µM; with UACC-62 melanoma, 20.1 µM; in the assay on HCT-15 colon, greater than 100 µM; with DLD-1 colon it was greater than 100 µM; in the assay on ACHN renal it was 52.7 µM; with SK-MEL-28 melanoma it was 25.4 µM.

In the case of `[Cl-].[La+3].[O-]/N=C(\c1ccccc1)c1ccccn1.[O-]/N=C(\c1ccccc1)c1ccccn1.[O-]/N=C(\c1ccccc1)c1ccccn1`, the GI50 was 22 µM in the assay on M19-MEL melanoma; 33.3 µM in the assay with UACC-62 melanoma; 28.6 µM in the assay with SK-MEL-5 melanoma; 30.8 µM with HCT-15 colon; 43.5 µM in the assay with DLD-1 colon; 22.9 µM in the assay on LOX IMVI melanoma. The GI50 in the assay with SK-MEL-28 melanoma was 38.5 µM. Further, the TGI in the assay with M19-MEL melanoma was 50 µM; with UACC-62 melanoma it was greater than 100 µM; in the assay with SK-MEL-5 melanoma, greater than 76.4 µM; in the assay on HCT-15 colon, greater than 100 µM; in the assay with DLD-1 colon it was greater than 100 µM; with LOX IMVI melanoma, greater than 100 µM. This compound yielded a TGI in the assay with SK-MEL-28 melanoma greater than 100 µM.

`Cn1c2ccccc2c2cc(-c3ccccc3)c3c(c21)C(=O)c1ccccc1C3=O`: the TGI in the assay with M19-MEL melanoma was determined as 6.47 µM; with UACC-62 melanoma, 30.1 µM; in the assay with DLD-1 colon, 31 µM; with SK-MEL-28 melanoma, 37.5 µM.

In the case of `Cc1ccc(NC(=O)c2cc3cc(N=Nc4ccccc4C(=O)O)ccc3oc2=O)cc1`, the TGI was 85 µM in the assay with UACC-62 melanoma; greater than 100 µM in the assay with SK-MEL-5 melanoma; greater than 100 µM with HCT-15 colon; greater than 100 µM in the assay with DLD-1 colon; greater than 100 µM in the assay on ACHN renal; greater than 100 µM in the assay on LOX IMVI melanoma. In the assay on SK-MEL-28 melanoma, this compound showed a TGI greater than 100 µM.

For `O=S1(=O)OCCOS(=O)(=O)C1Br`, the TGI with M19-MEL melanoma, in the assay on UACC-62 melanoma, in the assay with SK-MEL-5 melanoma, in the assay on DLD-1 colon and with SK-MEL-28 melanoma was greater than 100 µM in each case.

On to `CC(=O)OC1COC(n2ccc3cc(Br)c([N+](=O)[O-])cc32)C(OC(C)=O)C1OC(C)=O` (stereo not given), for which the TGI is greater than 100 µM in the assay on M19-MEL melanoma; 46.5 µM in the assay on UACC-62 melanoma; greater than 100 µM in the assay with HCT-15 colon; greater than 100 µM in the assay with DLD-1 colon; greater than 100 µM in the assay on ACHN renal; 40.7 µM in the assay on LOX IMVI melanoma. Further, the TGI with SK-MEL-28 melanoma is greater than 100 µM.

With `CN(C)c1ccc(/C=C(\NC(=O)c2ccccc2)c2nc3ncncc3[nH]2)cc1`, the TGI in the assay with M19-MEL melanoma, in the assay with UACC-62 melanoma, with SK-MEL-5 melanoma, in the assay on HCT-15 colon, with DLD-1 colon and in the assay on ACHN renal was greater than 100 µM each time. Besides, the TGI in the assay with SK-MEL-28 melanoma was greater than 100 µM.

Regarding `C#CC1(O)CCC2C3CCc4cc(Oc5nc(F)nc(-c6c7ccccc7c7sc8ccccc8n67)n5)ccc4C3CC[C@@]21C` (stereo not given in full), the TGI in the assay with M19-MEL melanoma, in the assay on UACC-62 melanoma, with SK-MEL-5 melanoma, in the assay on HCT-15 colon, with DLD-1 colon and in the assay with ACHN renal was greater than 100 µM each time. In the assay with SK-MEL-28 melanoma, the TGI is greater than 100 µM.

Turning to `CCN1c2ccccc2C(C(SC)S(=O)(=O)c2ccc(C)cc2)c2c1[nH]c(=O)n(C)c2=O` (stereo not given), the TGI with M19-MEL melanoma, in the assay with UACC-62 melanoma, with SK-MEL-5 melanoma, in the assay on HCT-15 colon, in the assay on DLD-1 colon and in the assay on LOX IMVI melanoma was greater than 100 µM each time. Besides, the TGI with SK-MEL-28 melanoma was greater than 100 µM.

In the case of `Cc1c2c(nn1-c1ccc(S(=O)(=O)/N=C3\SCCC(=O)N3c3ccccc3)cc1)-c1ccccc1CC2`, the GI50 is greater than 100 µM in the assay on DU-145 prostate; greater than 100 µM in the assay with UACC-62 melanoma; 95.9 µM with SK-MEL-5 melanoma; greater than 100 µM in the assay on HCT-15 colon; greater than 100 µM with ACHN renal; 35.1 µM in the assay with MDA-MB-231 breast. The GI50 in the assay on LOX IMVI melanoma and in the assay with SK-MEL-28 melanoma was greater than 100 µM throughout. In addition, the TGI with DU-145 prostate, with UACC-62 melanoma, in the assay with SK-MEL-5 melanoma, in the assay on HCT-15 colon, in the assay on ACHN renal and with MDA-MB-231 breast was greater than 100 µM each time. The TGI with LOX IMVI melanoma and with SK-MEL-28 melanoma was greater than 100 µM each time.

Consider `Cc1ccccc1S(=O)(=O)OC1NS(=O)(=O)c2ccccc21` (stereo not given), for which the TGI in the assay with DU-145 prostate, in the assay on UACC-62 melanoma, in the assay on SK-MEL-5 melanoma, in the assay with HCT-15 colon, in the assay on ACHN renal and in the assay on MDA-MB-231 breast was greater than 100 µM each time. The TGI in the assay on LOX IMVI melanoma and with SK-MEL-28 melanoma was greater than 100 µM in each case.

On to `C=C1NC(=O)C(C(C)CC)NC(=O)C2CSCC(NC(=O)CCC(=O)O)C(=O)NC(Cc3ccccc3)C(=O)NC(C)C(=O)NC(CC(C)CC)C(=O)NC(C(=O)NC(Cc3ccccc3)C(=O)N3CCCC3C(=O)N2)C(C)OC(=O)C(CO)NC(=O)C(C(O)COC)N(C)C(=O)C(C(C)C)NC(=O)C(CC(C)CC)NC1=O` (stereo not given), for which the GI50 in the assay with DU-145 prostate is 0.0238 µM; with UACC-62 melanoma, 0.00311 µM; with SK-MEL-5 melanoma it was 0.00637 µM; in the assay with HCT-15 colon, 0.0183 µM; in the assay with ACHN renal, 0.0553 µM; with MDA-MB-231 breast, 0.0201 µM. In addition, the GI50 in the assay on LOX IMVI melanoma is 0.0304 µM; in the assay on SK-MEL-28 melanoma, greater than 6 µM. Further, the TGI with DU-145 prostate is greater than 6 µM; with UACC-62 melanoma it was greater than 6 µM; in the assay on SK-MEL-5 melanoma, 0.427 µM; with HCT-15 colon, greater than 6 µM; in the assay on ACHN renal it was greater than 6 µM; in the assay on MDA-MB-231 breast, 3.24 µM. For the same compound, the TGI in the assay with LOX IMVI melanoma and in the assay with SK-MEL-28 melanoma was greater than 6 µM throughout.

As to `CCN(CC)/C(SCc1ccccc1)=C(\C(Cl)=C(Cl)Cl)[N+](=O)[O-]`, the TGI is 39.2 µM in the assay with DU-145 prostate; 18.1 µM in the assay on UACC-62 melanoma; 30.5 µM in the assay with SK-MEL-5 melanoma; 71.7 µM with HCT-15 colon; 29.8 µM with ACHN renal; 49.7 µM with MDA-MB-231 breast. The TGI in the assay on LOX IMVI melanoma came to 32.7 µM; with SK-MEL-28 melanoma, 33.9 µM.

On to `COc1cc(OC)cc(-c2cc(=O)c3c(OC)c(OC)c(OC)c(OC)c3o2)c1`, for which the TGI with DU-145 prostate was greater than 100 µM; in the assay on UACC-62 melanoma, greater than 100 µM; in the assay with SK-MEL-5 melanoma, 84 µM; in the assay with HCT-15 colon, greater than 100 µM; in the assay with ACHN renal, greater than 100 µM; in the assay on MDA-MB-231 breast, greater than 100 µM. In addition, the TGI in the assay on LOX IMVI melanoma and in the assay with SK-MEL-28 melanoma was greater than 100 µM throughout.
